Test results reported in patent publication US20240374558A1, “PREPARATION OF PHENE[…] […] STEREOISOMERS THEREOF AND PRECURSORS THEREOF” (priority 2022, published 2024).
“Also recorded” adds a separate entry of the source. Structures can show the parent of a compound that is named as a salt.

How the values were obtained:
[1] = target: T1, Kir2.1 (Homo sapiens, UniProt P63252); type: cell-based; details: Antagonist mode; HEK-Kir2.1; test compound
T1 construct: host or cells: HEK
T1 sequence (P63252 1-427): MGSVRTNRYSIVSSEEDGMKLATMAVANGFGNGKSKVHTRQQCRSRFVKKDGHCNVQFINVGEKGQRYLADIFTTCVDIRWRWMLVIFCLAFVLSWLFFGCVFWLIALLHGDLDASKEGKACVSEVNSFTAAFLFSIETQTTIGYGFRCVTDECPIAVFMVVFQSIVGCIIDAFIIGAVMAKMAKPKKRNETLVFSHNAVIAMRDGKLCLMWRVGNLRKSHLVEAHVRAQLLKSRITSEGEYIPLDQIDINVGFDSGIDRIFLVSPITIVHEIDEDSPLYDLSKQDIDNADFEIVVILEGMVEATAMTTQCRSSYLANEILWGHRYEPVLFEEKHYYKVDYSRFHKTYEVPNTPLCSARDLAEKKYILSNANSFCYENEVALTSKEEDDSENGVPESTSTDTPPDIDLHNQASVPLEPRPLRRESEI
Experimental: (§1) Electrophysiological assays were conducted to profile three compounds ((R)-methylone, (S)-methylone, or racemic methylone) for activities on the ion channel targets specified below using the Qube electrophysiological platform. Where presented, IC50 values were determined by a non-linear, least squares regression analysis. Reference standards were run as an integral part of each assay to ensure the validity of the results obtained.
(§2) Ion Channels tested were Eurofins Panel Part Number: CPROFullQB2DR Voltage-Gated Sodium: HEK-Nav1.5 (Peak), HEK-Nav1.5 (Late, Antagonist) Voltage-Gated Potassium: HEK-Kv4.3/KChIP2, CHO-hERG, CHO-KCNQ1/minK Voltage-Gated Calcium: HEK-Cav1.2 Inward-Rectifying Voltage-Gated Potassium: HEK-Kir2.1.
(§3) hKCNQ1/hminK Potassium Channel Assay—Qube APC After whole cell configuration is achieved, the cells are held at −80 mV. KCNQ1/minK currents are evoked by a 1000 ms pulse from −80 mV to 60 mV followed by a ramp from 60 mV to −80 mV over 115 ms with the outward peak currents measured upon depolarization of the cell membrane. This paradigm is delivered once every 15s to monitor the current amplitude. [0223] hKir2.1 Potassium Channel Assay—Qube APC After whole cell configuration is achieved, the cells are held at −30 mV. Kir2.1 currents are evoked by a single 500 ms pulse to -120 mV before returning to the holding potential of −30 mV. This paradigm is delivered once every 20s to monitor the current amplitude.

[2] = target: T2, KCNQ1/mink (Homo sapiens, UniProt P51787); experiment: hKCNQ1/hminK Potassium Channel Assay, Qube APC; type: cell-based; details: Antagonist mode; CHO-KCNQ1/minK; test compound
T2 construct: host or cells: CHO
T2 sequence (P51787 whole entry): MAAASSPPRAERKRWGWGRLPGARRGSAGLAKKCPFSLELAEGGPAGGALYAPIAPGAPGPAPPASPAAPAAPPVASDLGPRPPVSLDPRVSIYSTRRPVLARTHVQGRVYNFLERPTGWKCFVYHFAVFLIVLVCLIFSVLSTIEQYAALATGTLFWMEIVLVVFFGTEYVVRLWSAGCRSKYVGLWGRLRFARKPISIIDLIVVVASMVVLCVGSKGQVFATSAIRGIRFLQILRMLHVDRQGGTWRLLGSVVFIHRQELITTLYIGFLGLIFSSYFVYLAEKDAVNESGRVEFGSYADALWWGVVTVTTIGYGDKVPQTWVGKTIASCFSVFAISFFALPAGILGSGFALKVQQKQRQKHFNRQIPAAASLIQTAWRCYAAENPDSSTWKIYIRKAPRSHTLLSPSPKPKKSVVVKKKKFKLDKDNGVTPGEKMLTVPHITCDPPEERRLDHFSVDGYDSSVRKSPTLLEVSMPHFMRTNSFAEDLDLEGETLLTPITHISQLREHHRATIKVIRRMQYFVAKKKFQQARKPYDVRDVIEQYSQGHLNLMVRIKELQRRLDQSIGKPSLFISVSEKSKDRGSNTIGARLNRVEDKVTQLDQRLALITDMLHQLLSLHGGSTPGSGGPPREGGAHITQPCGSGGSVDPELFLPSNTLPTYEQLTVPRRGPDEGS
Experimental: as §1, §2, §3

[3] = test system: rat forced swim test (FST); experiment: Rat forced swim test (FST); type: in vivo; details: single dose 10 mg/kg, IP, 30 min before testing
Experimental: The forced swim test (FST) is a classic model to assess the antidepressant-like activity of compounds that has been in use for over 40 years (Porsolt et al. (1977) Nature 266:730-732; Detke et al. (1995) Psychopharmacology 121:66-72). […] A single dose of 5 mg/kg methylone reduces immobility by approximately 50% compared to vehicle-treated controls, whereas a 15 mg/kg dose reduces immobility by nearly 100%. Accompanying changes in climbing and/or swimming behavior reflect noradrenergic and serotonergic activities of methylone, respectively.
All FST studies are performed and scored by an experimenter blind to treatment group and according to standard protocols. Briefly, rats are placed in a circular plexiglass container filled with water. Water temperature is maintained at 22-25° C. and changed for every animal. Day 1 (Training) consists of a 15 min acclimation trial, and Day 2 (Testing, 24 h later) consists of the 5 min test. A time sampling procedure is employed where animals are observed every 5 seconds for the duration of the test session (60 counts or 5 minutes) and scored for immobility (defined as the failure to struggle), swimming (defined as a circular movement around the tank), or climbing (defined as an upwards escape behavior). Data are expressed as the percent of the testing session (e.g., the number of immobility counts divided by 60). A p-value less than 0.05 indicates statistical significance after typical statistical analyses (e.g., unpaired t-test or ANOVA).
To determine that the prodrug and/or enantiomer has an antidepressant-like effect and to compare it to methylone, rats are treated with each compound 30 min prior to testing. Additional tests are run 24, 72, 168 hours post-dose or longer. Effects on Fear Extinction in a Model of Post-Traumatic Stress Disorder (PTSD)
Racemic methylone (10 mg/kg, IP) has a maximal antidepressant-like effect in the rat forced swim test (FST), reducing immobility by nearly 100% compared to vehicle treated controls. […]

[4] = target: T3, Cav1.2 (Homo sapiens, UniProt Q13936); experiment: hCav1.2 (L-type) Calcium Channel Assay, Qube APC; type: cell-based; details: Antagonist mode; HEK-Cav1.2; test compound
T3 construct: host or cells: HEK293
T3 sequence (Q13936 whole entry): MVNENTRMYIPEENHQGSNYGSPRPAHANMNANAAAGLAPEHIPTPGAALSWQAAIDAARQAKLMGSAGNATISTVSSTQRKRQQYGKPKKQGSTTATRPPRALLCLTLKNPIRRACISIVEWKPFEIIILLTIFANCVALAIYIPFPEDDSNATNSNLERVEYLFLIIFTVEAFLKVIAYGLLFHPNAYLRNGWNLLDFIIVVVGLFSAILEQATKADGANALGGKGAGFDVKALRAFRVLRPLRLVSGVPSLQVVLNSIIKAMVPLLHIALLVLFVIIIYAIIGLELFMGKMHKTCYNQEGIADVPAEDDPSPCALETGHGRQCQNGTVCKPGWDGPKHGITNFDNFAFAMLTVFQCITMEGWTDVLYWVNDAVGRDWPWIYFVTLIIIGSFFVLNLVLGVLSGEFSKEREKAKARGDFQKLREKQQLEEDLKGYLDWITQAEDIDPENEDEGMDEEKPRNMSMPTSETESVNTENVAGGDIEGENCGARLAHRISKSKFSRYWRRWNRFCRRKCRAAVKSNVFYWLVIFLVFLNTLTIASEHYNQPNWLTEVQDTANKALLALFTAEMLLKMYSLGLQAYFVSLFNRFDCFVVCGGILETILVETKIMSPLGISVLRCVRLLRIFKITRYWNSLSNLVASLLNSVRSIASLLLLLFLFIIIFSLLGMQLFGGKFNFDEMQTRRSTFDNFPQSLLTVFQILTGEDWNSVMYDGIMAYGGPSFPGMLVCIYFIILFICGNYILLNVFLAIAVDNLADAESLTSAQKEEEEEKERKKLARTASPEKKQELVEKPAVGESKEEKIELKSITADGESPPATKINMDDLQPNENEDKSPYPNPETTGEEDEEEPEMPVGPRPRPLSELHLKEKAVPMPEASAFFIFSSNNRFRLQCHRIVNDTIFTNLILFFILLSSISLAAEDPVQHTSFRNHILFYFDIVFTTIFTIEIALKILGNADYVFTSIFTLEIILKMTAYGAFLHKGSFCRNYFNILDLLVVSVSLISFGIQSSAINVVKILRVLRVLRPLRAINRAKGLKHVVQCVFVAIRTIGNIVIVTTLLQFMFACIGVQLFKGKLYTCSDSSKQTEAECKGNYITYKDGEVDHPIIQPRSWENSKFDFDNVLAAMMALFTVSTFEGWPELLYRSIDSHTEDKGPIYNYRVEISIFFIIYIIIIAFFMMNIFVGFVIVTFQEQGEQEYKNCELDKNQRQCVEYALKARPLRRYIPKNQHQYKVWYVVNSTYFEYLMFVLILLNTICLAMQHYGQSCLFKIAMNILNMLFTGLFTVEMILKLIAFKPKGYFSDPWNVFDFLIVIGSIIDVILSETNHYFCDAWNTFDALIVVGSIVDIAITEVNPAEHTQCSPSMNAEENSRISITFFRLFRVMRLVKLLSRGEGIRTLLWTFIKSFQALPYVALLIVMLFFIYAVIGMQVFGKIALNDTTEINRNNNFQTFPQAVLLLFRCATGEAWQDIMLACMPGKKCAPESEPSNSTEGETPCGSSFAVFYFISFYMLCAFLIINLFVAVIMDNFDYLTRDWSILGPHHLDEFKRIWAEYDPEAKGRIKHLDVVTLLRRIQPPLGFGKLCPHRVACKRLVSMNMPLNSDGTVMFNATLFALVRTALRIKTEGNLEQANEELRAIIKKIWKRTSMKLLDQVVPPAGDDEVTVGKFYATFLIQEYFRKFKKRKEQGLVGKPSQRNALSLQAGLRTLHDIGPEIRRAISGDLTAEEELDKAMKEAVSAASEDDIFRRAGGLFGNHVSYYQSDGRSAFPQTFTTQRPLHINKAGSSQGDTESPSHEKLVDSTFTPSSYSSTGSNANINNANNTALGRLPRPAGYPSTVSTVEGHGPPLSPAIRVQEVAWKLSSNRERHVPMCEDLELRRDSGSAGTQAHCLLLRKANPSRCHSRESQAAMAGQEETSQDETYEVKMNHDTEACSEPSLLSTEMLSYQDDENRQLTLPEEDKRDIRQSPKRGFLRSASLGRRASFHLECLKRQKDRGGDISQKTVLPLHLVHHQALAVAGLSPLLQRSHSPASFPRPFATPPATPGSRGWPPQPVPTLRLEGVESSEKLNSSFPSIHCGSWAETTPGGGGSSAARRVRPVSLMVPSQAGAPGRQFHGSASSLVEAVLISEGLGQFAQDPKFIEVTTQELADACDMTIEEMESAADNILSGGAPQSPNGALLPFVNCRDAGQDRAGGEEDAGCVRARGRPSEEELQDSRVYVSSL
T3 sequence (Q08289 1-605 isoform Q08289-2 partner): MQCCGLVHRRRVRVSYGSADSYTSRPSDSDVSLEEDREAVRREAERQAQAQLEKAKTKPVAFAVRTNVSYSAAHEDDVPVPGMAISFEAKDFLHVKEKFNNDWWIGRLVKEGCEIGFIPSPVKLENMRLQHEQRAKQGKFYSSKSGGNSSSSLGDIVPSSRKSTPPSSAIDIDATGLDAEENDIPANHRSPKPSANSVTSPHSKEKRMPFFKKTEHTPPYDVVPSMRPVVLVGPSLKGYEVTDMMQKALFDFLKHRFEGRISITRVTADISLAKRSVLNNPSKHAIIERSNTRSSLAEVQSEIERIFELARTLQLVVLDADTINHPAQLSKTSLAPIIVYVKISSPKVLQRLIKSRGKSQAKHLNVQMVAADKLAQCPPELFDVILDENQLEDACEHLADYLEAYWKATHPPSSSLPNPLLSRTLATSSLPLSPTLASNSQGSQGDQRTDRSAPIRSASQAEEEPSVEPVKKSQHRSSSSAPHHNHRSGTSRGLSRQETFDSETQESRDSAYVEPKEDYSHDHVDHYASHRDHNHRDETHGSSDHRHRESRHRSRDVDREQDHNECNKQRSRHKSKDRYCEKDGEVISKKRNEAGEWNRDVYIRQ
T3 sequence (P54289 25-956 partner limits assumed): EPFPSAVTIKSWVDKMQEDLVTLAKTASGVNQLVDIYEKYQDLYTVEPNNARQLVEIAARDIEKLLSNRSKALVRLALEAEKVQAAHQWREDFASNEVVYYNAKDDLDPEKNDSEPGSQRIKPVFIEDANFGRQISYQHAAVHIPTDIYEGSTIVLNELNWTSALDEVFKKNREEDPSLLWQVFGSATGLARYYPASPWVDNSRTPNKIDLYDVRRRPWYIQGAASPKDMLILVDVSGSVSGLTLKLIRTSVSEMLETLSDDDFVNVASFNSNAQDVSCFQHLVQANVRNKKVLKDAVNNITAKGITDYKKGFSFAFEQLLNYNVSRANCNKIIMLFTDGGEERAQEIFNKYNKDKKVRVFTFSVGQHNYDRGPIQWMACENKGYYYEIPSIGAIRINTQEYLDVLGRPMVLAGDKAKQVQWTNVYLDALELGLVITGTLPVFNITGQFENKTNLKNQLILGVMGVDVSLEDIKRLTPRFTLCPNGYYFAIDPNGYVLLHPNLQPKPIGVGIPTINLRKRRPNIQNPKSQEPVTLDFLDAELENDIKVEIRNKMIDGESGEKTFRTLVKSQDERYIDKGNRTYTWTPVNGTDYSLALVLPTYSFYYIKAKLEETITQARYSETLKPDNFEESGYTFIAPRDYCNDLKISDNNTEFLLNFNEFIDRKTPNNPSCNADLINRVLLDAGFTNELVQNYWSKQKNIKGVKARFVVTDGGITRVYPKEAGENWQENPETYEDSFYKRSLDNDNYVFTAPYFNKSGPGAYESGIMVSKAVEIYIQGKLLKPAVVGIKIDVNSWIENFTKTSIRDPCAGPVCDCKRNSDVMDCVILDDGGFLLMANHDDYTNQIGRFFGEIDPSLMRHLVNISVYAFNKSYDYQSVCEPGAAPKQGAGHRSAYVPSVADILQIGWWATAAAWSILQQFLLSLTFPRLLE
T3 sequence (P54289 957-1103 partner limits assumed): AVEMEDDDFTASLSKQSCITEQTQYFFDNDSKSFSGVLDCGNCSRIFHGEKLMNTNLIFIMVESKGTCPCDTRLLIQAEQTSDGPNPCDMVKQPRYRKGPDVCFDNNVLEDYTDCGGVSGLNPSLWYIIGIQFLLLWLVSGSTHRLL
Experimental: Where presented, IC50 values were determined by a non-linear, least squares regression analysis.
Recombinant HEK-293 cells stably transfected with human NavL.5 cDNA, recombinant HEK293 cell line expressing the human Cavl.2 (L-type voltage gated calcium channel, hCavl.2 alC/02a/a281, and recombinant CHO-K1 cells stably transfected with human hERG cDNA were used separately in each of these assays.
as §2
Methods employed in this study have been developed and validated with reliability and reproducibility by Eurofins. Assays were performed under conditions below. […] Peak current is measured during the step to −15 mV. […] Onset and steady state block of hKv4.3 current is measured using a pulse pattern from −80 mV to 40 mV amplitude for a 110 ms duration, and finally a 100 ms ramp (1.2 V/s) to −80 mV. This paradigm is delivered once every 5s to monitor the current amplitude. […] Cavl.2 currents are evoked by a 50 ms pulse to −100 mV followed by a 200 ms pulse to +20 mV before returning to the holding potential of −90 mV. This paradigm is delivered three times every 60s to monitor the current amplitude. [0220] hNav1.5 Late Current Sodium Channel Assay—Qube APC Onset and steady state block of Late Nay1.5 current is measured using a pulse pattern, repeated every 5 sec, consisting of a hyperpolarizing pulse to −120 mV for a 200 ms duration, depolarization to −15 mV amplitude for a 40 ms duration, followed by step to 40 mV for 200 ms and finally a 100 ms ramp (1.2 V/s) to a holding potential of −80 mV. Late current is measured as charge current elicited during the ramp with 50 nM ATXII.

Row | Structure (SMILES) | Estimated IC50 [1] | Estimated IC50 [2] | antidepressant-like effect (immobility) compared to vehicle ([3]; 10 mg/kg) | Estimated IC50 [4] | antidepressant-like effect (immobility) compared to vehicle [3]
1 | CN[C@@H](C)C(=O)c1ccc2c(c1)OCO2 [(S)-methylone] | N/C (N/C indicates observed mean inhibition was <25%) | N/C (N/C indicates observed mean inhibition was <25%) | Mimics the Rapid and Robust Antidepressant-like Activity of Racemic Methylone; also recorded: mimicked the rapid and robust antidepressant-like effect of racemic methylone | N/C (N/C indicates observed mean inhibition was <25%) | 
2 | CN[C@H](C)C(=O)c1ccc2c(c1)OCO2 [(R)-methylone] | N/C (N/C indicates observed mean inhibition was <25%) | N/C (N/C indicates observed mean inhibition was <25%) |  | N/C (N/C indicates observed mean inhibition was <25%) | no effect
3 | CNC(C)C(=O)c1ccc2c(c1)OCO2 (centres unmarked) [Methylone HCl, methylone HCl] | N/C (N/C indicates observed mean inhibition was <25%) | N/C (N/C indicates observed mean inhibition was <25%) |  | N/C (N/C indicates observed mean inhibition was <25%) | 
